Experimental data: ChEMBL document CHEMBL3885881, “DrugMatrix”

Species on record: Rattus norvegicus
Assay: DrugMatrix - Regimen: Daily Repeat
Format: toxicity, organism-based, Sprague-Dawley
Set-up: regimen Daily Repeat, gender Male, age 6-8 weeks
Conditions: in vivo, po, route oral GAVAGE, vehicle 100 % SALINE; for ABSOLUTE BASOPHIL / ABSOLUTE EOSINOPHIL / ABSOLUTE LYMPHOCYTE / ABSOLUTE MONOCYTE / ABSOLUTE SEGMENTED NEUTROPHIL / BASOPHIL / EOSINOPHIL / ERYTHROCYTE COUNT / HEMATOCRIT / HEMOGLOBIN / LEUKOCYTE COUNT / LYMPHOCYTE / MEAN CORPUSCULAR HEMOGLOBIN / MEAN CORPUSCULAR HEMOGLOBIN CONCENTRATION / MEAN CORPUSCULAR VOLUME / MONOCYTE / NEUTROPHIL / NUCLEATED RED BLOOD CELLS / PLATELET COUNT: tissue Blood; for ALANINE AMINOTRANSFERASE / ALBUMIN / ALKALINE PHOSPHATASE / ASPARTATE AMINOTRANSFERASE / BLOOD UREA NITROGEN / CARBON DIOXIDE / CHLORIDE / CHOLESTEROL / CREATINE PHOSPHOKINASE / CREATININE / GLUCOSE / LACTATE DEHYDROGENASE / LIPASE / PHOSPHORUS / POTASSIUM / SODIUM / TOTAL BILIRUBIN / TOTAL PROTEIN / URIC ACID: tissue Plasma
[1] = 59 mg/kg, 120 h, dose level Low, time 5 day
[2] = 400 mg/kg, 72 h, dose level High, time 3 day
[3] = 400 mg/kg, 120 h, dose level High, time 5 day

Compound: NC(=O)NO [HYDROXYUREA]
- ABSOLUTE BASOPHIL [1]: 0 CELLS/uL
- ABSOLUTE EOSINOPHIL [1]: 40 CELLS/uL
- ABSOLUTE LYMPHOCYTE [1]: 7014.67 CELLS/uL
- ABSOLUTE MONOCYTE [1]: 87.67 CELLS/uL
- ABSOLUTE SEGMENTED NEUTROPHIL [1]: 557.67 CELLS/uL
- BASOPHIL [1]: 0%
- EOSINOPHIL [1]: 0.67%
- ERYTHROCYTE COUNT [1]: 5.35 x10E6/uL
- HEMATOCRIT [1]: 34.53%
- HEMOGLOBIN [1]: 13.4 G/DL
- LEUKOCYTE COUNT [1]: 7.7 x10E3/uL
- LYMPHOCYTE [1]: 90.67%
- MEAN CORPUSCULAR HEMOGLOBIN [1]: 25.1 pg
- MEAN CORPUSCULAR HEMOGLOBIN CONCENTRATION [1]: 38.83 G/DL
- MEAN CORPUSCULAR VOLUME [1]: 64.63 fL
- MONOCYTE [1]: 1%
- NEUTROPHIL [1]: 7.67%
- NUCLEATED RED BLOOD CELLS [1]: 0 /100WBC
- PLATELET COUNT [1]: 1286 x10E3/uL
- ALANINE AMINOTRANSFERASE [1]: 54 u/L
- ALBUMIN [1]: 4.1 G/DL
- ALKALINE PHOSPHATASE [1]: 381.33 u/L
- ASPARTATE AMINOTRANSFERASE [1]: 80.33 u/L
- BLOOD UREA NITROGEN [1]: 12.33 mg/dL
- CARBON DIOXIDE [1]: 29.67 mmol/L
- CHLORIDE [1]: 98 MEQ/L
- CHOLESTEROL [1]: 64 mg/dL
- CREATINE PHOSPHOKINASE [1]: 314.67 u/L
- CREATININE [1]: 0.22 mg/dL
- GLUCOSE [1]: 169.33 mg/dL
- LACTATE DEHYDROGENASE [1]: 90.33 u/L
- LIPASE [1]: 10.67 u/L
- PHOSPHORUS [1]: 10.9 mg/dL
- POTASSIUM [1]: 5.6 MEQ/L
- SODIUM [1]: 143.13 MEQ/L
- TOTAL BILIRUBIN [1]: 0.17 mg/dL
- TOTAL PROTEIN [1]: 6.1 G/DL
- URIC ACID [1]: 0.8 mg/dL
- ABSOLUTE BASOPHIL [2]: 0 CELLS/uL
- ABSOLUTE EOSINOPHIL [2]: 0 CELLS/uL
- ABSOLUTE LYMPHOCYTE [2]: 4351 CELLS/uL
- ABSOLUTE MONOCYTE [2]: 16 CELLS/uL
- ABSOLUTE SEGMENTED NEUTROPHIL [2]: 133 CELLS/uL
- BASOPHIL [2]: 0%
- EOSINOPHIL [2]: 0%
- ERYTHROCYTE COUNT [2]: 4.56 x10E6/uL
- HEMATOCRIT [2]: 29.63%
- HEMOGLOBIN [2]: 11.37 G/DL
- LEUKOCYTE COUNT [2]: 4.5 x10E3/uL
- LYMPHOCYTE [2]: 96.67%
- MEAN CORPUSCULAR HEMOGLOBIN [2]: 24.93 pg
- MEAN CORPUSCULAR HEMOGLOBIN CONCENTRATION [2]: 38.43 G/DL
- MEAN CORPUSCULAR VOLUME [2]: 64.87 fL
- MONOCYTE [2]: 0.33%
- NEUTROPHIL [2]: 3%
- NUCLEATED RED BLOOD CELLS [2]: 0 /100WBC
- PLATELET COUNT [2]: 1033 x10E3/uL
- ALANINE AMINOTRANSFERASE [2]: 39.67 u/L
- ALBUMIN [2]: 3.97 G/DL
- ALKALINE PHOSPHATASE [2]: 323.33 u/L
- ASPARTATE AMINOTRANSFERASE [2]: 76 u/L
- BLOOD UREA NITROGEN [2]: 10 mg/dL
- CARBON DIOXIDE [2]: 30.33 mmol/L
- CHLORIDE [2]: 100.67 MEQ/L
- CHOLESTEROL [2]: 77.33 mg/dL
- CREATINE PHOSPHOKINASE [2]: 221.33 u/L
- CREATININE [2]: 0.2 mg/dL
- GLUCOSE [2]: 154.67 mg/dL
- LACTATE DEHYDROGENASE [2]: 79 u/L
- LIPASE [2]: 9 u/L
- PHOSPHORUS [2]: 10.53 mg/dL
- POTASSIUM [2]: 5.6 MEQ/L
- SODIUM [2]: 144.93 MEQ/L
- TOTAL BILIRUBIN [2]: 0.1 mg/dL
- TOTAL PROTEIN [2]: 5.93 G/DL
- URIC ACID [2]: 0.53 mg/dL
- ABSOLUTE BASOPHIL [3]: 0 CELLS/uL
- ABSOLUTE EOSINOPHIL [3]: 0 CELLS/uL
- ABSOLUTE LYMPHOCYTE [3]: 4141 CELLS/uL
- ABSOLUTE MONOCYTE [3]: 8.33 CELLS/uL
- ABSOLUTE SEGMENTED NEUTROPHIL [3]: 117.33 CELLS/uL
- BASOPHIL [3]: 0%
- EOSINOPHIL [3]: 0%
- ERYTHROCYTE COUNT [3]: 4.75 x10E6/uL
- HEMATOCRIT [3]: 30.23%
- HEMOGLOBIN [3]: 11.9 G/DL
- LEUKOCYTE COUNT [3]: 4.27 x10E3/uL
- LYMPHOCYTE [3]: 97%
- MEAN CORPUSCULAR HEMOGLOBIN [3]: 25.03 pg
- MEAN CORPUSCULAR HEMOGLOBIN CONCENTRATION [3]: 39.37 G/DL
- MEAN CORPUSCULAR VOLUME [3]: 63.63 fL
- MONOCYTE [3]: 0.33%
- NEUTROPHIL [3]: 2.67%
- NUCLEATED RED BLOOD CELLS [3]: 0 /100WBC
- PLATELET COUNT [3]: 955 x10E3/uL
- ALANINE AMINOTRANSFERASE [3]: 47 u/L
- ALBUMIN [3]: 3.97 G/DL
- ALKALINE PHOSPHATASE [3]: 216.67 u/L
- ASPARTATE AMINOTRANSFERASE [3]: 84.67 u/L
- BLOOD UREA NITROGEN [3]: 11.33 mg/dL
- CARBON DIOXIDE [3]: 28.67 mmol/L
- CHLORIDE [3]: 100.67 MEQ/L
- CHOLESTEROL [3]: 82 mg/dL
- CREATINE PHOSPHOKINASE [3]: 362.67 u/L
- CREATININE [3]: 0.1 mg/dL
- GLUCOSE [3]: 158.67 mg/dL
- LACTATE DEHYDROGENASE [3]: 74 u/L
- LIPASE [3]: 8.67 u/L
- PHOSPHORUS [3]: 10.1 mg/dL
- POTASSIUM [3]: 5.3 MEQ/L
- SODIUM [3]: 144.07 MEQ/L
- TOTAL BILIRUBIN [3]: 0.1 mg/dL
- TOTAL PROTEIN [3]: 5.87 G/DL
- URIC ACID [3]: 0.47 mg/dL
